Results on 30 sequences are retold here after article PMC7753147, “High-throughput determination of protein affinities using unmodified peptide libraries in nanomolar scale” (iScience, 2020).

One assay deals with FL-geph. Description: µSPOT peptide microarray binding assay with full-length geph.
The test system of the next assay is gephE. Description: µSPOT peptide microarray binding assay with recombinant gephE.
The test system of another assay is native geph. Description: µSPOT peptide microarray binding assay with native geph from mouse brain lysate.
The mark [1] stands for this setting: µSPOT full positional scan of GlyRβ 15-mer DLRSNDFSIVGSLPR, intensity normalised to wild-type sequence (= 1).
Where [2] appears, read: µSPOT full positional scan of GlyRβ 15-mer DLRSNDFSIVGSLPR, native geph, intensity normalised to wild-type sequence (= 1).

Take “DLRSNDFSIVGSLPH [GlyRβ_Full_Positional_Scan_293]”: in the assay on FL-geph (setting [1]), the “Fl-geph Binding Intensity [norm.]” value is reported as 1.05 norm. The “gephE Binding Intensity [norm.]” value in the assay on gephE (setting [1]) came out at 0.96 norm. The “Native geph Binding Intensity [norm.]” value with native geph (setting [2]) came to 0.92 norm.
“DLRSNDFSIVGSLPI [GlyRβ_Full_Positional_Scan_283]”: the “Fl-geph Binding Intensity [norm.]” value with FL-geph (setting [1]) was determined as 1.05 norm. The “gephE Binding Intensity [norm.]” value in the assay with gephE (setting [1]) turned out to be 0.98 norm. For the same sequence, the “Native geph Binding Intensity [norm.]” value in the assay with native geph (setting [2]) came out at 1.01 norm.
As for “DLRSNDFSIVGSLPK [GlyRβ_Full_Positional_Scan_294]”, the “Fl-geph Binding Intensity [norm.]” value in the assay with FL-geph (setting [1]) is recorded as 1.24 norm. Also, the “gephE Binding Intensity [norm.]” value with gephE (setting [1]) is 0.92 norm. Also, the “Native geph Binding Intensity [norm.]” value in the assay on native geph (setting [2]) came out at 0.71 norm.
For the sequence “DLRSNDFSIVGSLPL [GlyRβ_Full_Positional_Scan_284]”, the “Fl-geph Binding Intensity [norm.]” value in the assay on FL-geph (setting [1]) is reported as 1.05 norm. The “gephE Binding Intensity [norm.]” value with gephE (setting [1]) was found to be 1.05 norm. The “Native geph Binding Intensity [norm.]” value in the assay on native geph (setting [2]) came out at 1.11 norm.
On to “DLRSNDFSIVGSLPM [GlyRβ_Full_Positional_Scan_298]”, for which the “Fl-geph Binding Intensity [norm.]” value with FL-geph (setting [1]) is 1.34 norm. In addition, in the assay on gephE (setting [1]), the “gephE Binding Intensity [norm.]” value was 0.9 norm. Besides, in the assay with native geph (setting [2]), the “Native geph Binding Intensity [norm.]” value is listed as 1.42 norm.
On the same counts, the results for “DLRSNDFSIVGSLPN [GlyRβ_Full_Positional_Scan_299]” are 1.36 norm, 0.98 norm and 1.37 norm.
For “DLRSNDFSIVGSLPP [GlyRβ_Full_Positional_Scan_285]”, the “Fl-geph Binding Intensity [norm.]” value with FL-geph (setting [1]) is recorded as 1.03 norm. The “gephE Binding Intensity [norm.]” value in the assay on gephE (setting [1]) worked out at 1.02 norm. Moreover, the “Native geph Binding Intensity [norm.]” value in the assay on native geph (setting [2]) is on record as 1.08 norm.
As for “DLRSNDFSIVGSLPQ [GlyRβ_Full_Positional_Scan_300]”, in the assay with FL-geph (setting [1]), the “Fl-geph Binding Intensity [norm.]” value worked out at 1.33 norm. In the assay on gephE (setting [1]), the “gephE Binding Intensity [norm.]” value was 1.02 norm. The “Native geph Binding Intensity [norm.]” value with native geph (setting [2]) was 1.41 norm.
As to “DLRSNDFSIVGSLPR [GlyRβ_Full_Positional_Scan_099]”, in the assay with FL-geph (µSPOT peptide microarray, GlyRβ full positional scan, intensity normalised to wild-type sequence DLRSNDFSIVGSLPR (=1)), the “Fl-geph Binding Intensity [norm.]” value turned out to be 1 norm. Further, the “gephE Binding Intensity [norm.]” value in the assay with gephE (µSPOT peptide microarray, GlyRβ full positional scan, recombinant gephE, intensity normalised to wild-type sequence DLRSNDFSIVGSLPR (=1)) is recorded as 1 norm. Besides, in the assay on native geph (µSPOT peptide microarray, GlyRβ full positional scan, native geph from mouse brain lysate, intensity normalised to wild-type sequence DLRSNDFSIVGSLPR (=1)), the “Native geph Binding Intensity [norm.]” value was found to be 1 norm.
Regarding “DLRSNDFSIVGSLPR [GlyRβ_Full_Positional_Scan_235]”, the “Fl-geph Binding Intensity [norm.]” value in the assay with FL-geph (setting [1]) is recorded as 1 norm. Besides, the “gephE Binding Intensity [norm.]” value in the assay with gephE (setting [1]) was determined as 1 norm. In addition, in the assay with native geph (setting [2]), the “Native geph Binding Intensity [norm.]” value was 1 norm.
Consider “DLRSNDFSIVGSLPS [GlyRβ_Full_Positional_Scan_295]”, for which, in the assay on FL-geph (setting [1]), the “Fl-geph Binding Intensity [norm.]” value was determined as 1.3 norm. The “gephE Binding Intensity [norm.]” value in the assay with gephE (setting [1]) is given as 0.82 norm. Also, in the assay on native geph (setting [2]), the “Native geph Binding Intensity [norm.]” value worked out at 1.3 norm.
Regarding “DLRSNDFSIVGSLPT [GlyRβ_Full_Positional_Scan_296]”, the “Fl-geph Binding Intensity [norm.]” value with FL-geph (setting [1]) came to 1.37 norm. The “gephE Binding Intensity [norm.]” value with gephE (setting [1]) is 0.87 norm. The “Native geph Binding Intensity [norm.]” value in the assay with native geph (setting [2]) is recorded as 1.56 norm.
Regarding “DLRSNDFSIVGSLPV [GlyRβ_Full_Positional_Scan_286]”, in the assay on FL-geph (setting [1]), the “Fl-geph Binding Intensity [norm.]” value stood at 0.97 norm. Besides, the “gephE Binding Intensity [norm.]” value with gephE (setting [1]) is reported as 1.06 norm. Also, the “Native geph Binding Intensity [norm.]” value in the assay with native geph (setting [2]) amounted to 0.96 norm.
The corresponding values for “DLRSNDFSIVGSLPW [GlyRβ_Full_Positional_Scan_288]” are 0.84 norm, 0.89 norm and 0.76 norm.
The corresponding values for “DLRSNDFSIVGSLPY [GlyRβ_Full_Positional_Scan_289]” are 0.74 norm, 0.87 norm and 1.09 norm.
Consider “DLRSNDFSIVGSLQR [GlyRβ_Full_Positional_Scan_280]”, for which the “Fl-geph Binding Intensity [norm.]” value with FL-geph (setting [1]) was found to be 0.77 norm. In addition, the “gephE Binding Intensity [norm.]” value with gephE (setting [1]) is listed as 0.53 norm. In the assay with native geph (setting [2]), the “Native geph Binding Intensity [norm.]” value is on record as 0.41 norm.
With “DLRSNDFSIVGSLRR [GlyRβ_Full_Positional_Scan_272]”, the “Fl-geph Binding Intensity [norm.]” value in the assay with FL-geph (setting [1]) stood at 0.93 norm. Besides, the “gephE Binding Intensity [norm.]” value in the assay with gephE (setting [1]) is 0.59 norm. In the assay on native geph (setting [2]), the “Native geph Binding Intensity [norm.]” value was found to be 0.25 norm.
Regarding “DLRSNDFSIVGSLSR [GlyRβ_Full_Positional_Scan_275]”, the “Fl-geph Binding Intensity [norm.]” value with FL-geph (setting [1]) was determined as 0.92 norm. For the same sequence, in the assay on gephE (setting [1]), the “gephE Binding Intensity [norm.]” value is given as 0.72 norm. In addition, in the assay on native geph (setting [2]), the “Native geph Binding Intensity [norm.]” value amounted to 0.5 norm.
For the sequence “DLRSNDFSIVGSLTR [GlyRβ_Full_Positional_Scan_276]”, in the assay with FL-geph (setting [1]), the “Fl-geph Binding Intensity [norm.]” value was 0.96 norm. Further, the “gephE Binding Intensity [norm.]” value in the assay with gephE (setting [1]) is listed as 0.74 norm. Moreover, the “Native geph Binding Intensity [norm.]” value in the assay with native geph (setting [2]) was 0.49 norm.
For “DLRSNDFSIVGSLVR [GlyRβ_Full_Positional_Scan_266]”, in the assay on FL-geph (setting [1]), the “Fl-geph Binding Intensity [norm.]” value came to 0.91 norm. For the same sequence, the “gephE Binding Intensity [norm.]” value in the assay with gephE (setting [1]) came to 0.62 norm. Further, in the assay on native geph (setting [2]), the “Native geph Binding Intensity [norm.]” value is on record as 0.45 norm.
On the same counts, the results for “DLRSNDFSIVGSLWR [GlyRβ_Full_Positional_Scan_268]” are 0.72 norm, 0.61 norm and 0.32 norm.
On the same counts, the results for “DLRSNDFSIVGSLYR [GlyRβ_Full_Positional_Scan_269]” are 0.71 norm, 0.78 norm and 0.59 norm.
For “DLRSNDFSIVGSMPR [GlyRβ_Full_Positional_Scan_258]”, in the assay on FL-geph (setting [1]), the “Fl-geph Binding Intensity [norm.]” value came to 1.08 norm. In the assay on gephE (setting [1]), the “gephE Binding Intensity [norm.]” value is 0.69 norm. In addition, the “Native geph Binding Intensity [norm.]” value with native geph (setting [2]) turned out to be 0.92 norm.
In the case of “DLRSNDFSIVGSNPR [GlyRβ_Full_Positional_Scan_259]”, the “Fl-geph Binding Intensity [norm.]” value in the assay with FL-geph (setting [1]) worked out at 1.03 norm. For the same sequence, in the assay with gephE (setting [1]), the “gephE Binding Intensity [norm.]” value was 0.9 norm. Moreover, in the assay on native geph (setting [2]), the “Native geph Binding Intensity [norm.]” value is recorded as 0.97 norm.
Turning to “DLRSNDFSIVGSPPR [GlyRβ_Full_Positional_Scan_245]”, the “Fl-geph Binding Intensity [norm.]” value with FL-geph (setting [1]) turned out to be 0.96 norm. The “gephE Binding Intensity [norm.]” value in the assay with gephE (setting [1]) was determined as 0.89 norm. Besides, the “Native geph Binding Intensity [norm.]” value in the assay on native geph (setting [2]) came out at 0.78 norm.
On to “DLRSNDFSIVGSQPR [GlyRβ_Full_Positional_Scan_260]”, for which the “Fl-geph Binding Intensity [norm.]” value with FL-geph (setting [1]) turned out to be 0.97 norm. Moreover, the “gephE Binding Intensity [norm.]” value in the assay with gephE (setting [1]) was found to be 0.76 norm. The “Native geph Binding Intensity [norm.]” value in the assay on native geph (setting [2]) is listed as 0.8 norm.
Take “DLRSNDFSIVGSRPR [GlyRβ_Full_Positional_Scan_252]”: the “Fl-geph Binding Intensity [norm.]” value in the assay on FL-geph (setting [1]) was 1.07 norm. Also, the “gephE Binding Intensity [norm.]” value with gephE (setting [1]) is recorded as 0.84 norm. In addition, in the assay on native geph (setting [2]), the “Native geph Binding Intensity [norm.]” value was 0.38 norm.
As to “DLRSNDFSIVGSSPR [GlyRβ_Full_Positional_Scan_255]”, the “Fl-geph Binding Intensity [norm.]” value in the assay with FL-geph (setting [1]) worked out at 1.08 norm. In addition, the “gephE Binding Intensity [norm.]” value with gephE (setting [1]) came to 0.84 norm. Also, in the assay with native geph (setting [2]), the “Native geph Binding Intensity [norm.]” value was found to be 0.85 norm.
In the case of “DLRSNDFSIVGSTPR [GlyRβ_Full_Positional_Scan_256]”, in the assay on FL-geph (setting [1]), the “Fl-geph Binding Intensity [norm.]” value was found to be 1.14 norm. In addition, the “gephE Binding Intensity [norm.]” value with gephE (setting [1]) was determined as 0.86 norm. In addition, the “Native geph Binding Intensity [norm.]” value in the assay with native geph (setting [2]) was found to be 0.89 norm.
On to “DLRSNDFSIVGSVPR [GlyRβ_Full_Positional_Scan_246]”, for which the “Fl-geph Binding Intensity [norm.]” value in the assay on FL-geph (setting [1]) worked out at 1.06 norm. In addition, the “gephE Binding Intensity [norm.]” value in the assay on gephE (setting [1]) was 0.92 norm. The “Native geph Binding Intensity [norm.]” value in the assay with native geph (setting [2]) amounted to 0.82 norm.
